Source: the kinase profiling compilation of Christmann-Franck et al. (2016)

Columns and labels:
Assay in all cases: radiometric filter-binding kinase assay, Kinase HotSpot
FER (human) = FER (human) (UniProt P16591); settings: compound 0.5 µM; ATP 10 µM
MARK3 (human) = MARK3 (human) (UniProt P27448); settings: compound 0.5 µM; ATP 10 µM
CDK2 CCNE1 (human) = CDK2 CCNE1 (human) (UniProt P24941+P24864); settings: compound 0.5 µM
MAPKAPK5 (human) = MAPKAPK5 (human) (UniProt Q8IW41); settings: compound 0.5 µM; ATP 10 µM
PAK7 (human) = PAK7 (human) (UniProt Q9P286); settings: compound 0.5 µM; ATP 10 µM
IKBKE (human) = IKBKE (human) (UniProt Q14164); settings: compound 0.5 µM; ATP 10 µM
YES1 (human) = YES1 (human) (UniProt P07947); settings: compound 0.5 µM; ATP 10 µM
LRRK2 (human) = LRRK2 (human) (UniProt Q5S007); settings: compound 0.5 µM; ATP 10 µM
STK33 (human) = STK33 (human) (UniProt Q9BYT3); settings: compound 0.5 µM; ATP 10 µM
EGFR (human) = EGFR (human) (UniProt P00533); settings: compound 0.5 µM; ATP 10 µM
AXL (human) = AXL (human) (UniProt P30530); settings: compound 0.5 µM; ATP 10 µM
PAK6 (human) = PAK6 (human) (UniProt Q9NQU5); settings: compound 0.5 µM; ATP 10 µM
ROCK1 (human) = ROCK1 (human) (UniProt Q13464); settings: compound 0.5 µM; ATP 10 µM
CSNK1A1 (human) = CSNK1A1 (human) (UniProt P48729); settings: compound 0.5 µM; ATP 10 µM
MAPK3 (human) = MAPK3 (human) (UniProt P27361); settings: compound 0.5 µM; ATP 10 µM
PRKCZ (human) = PRKCZ (human) (UniProt Q05513); settings: compound 0.5 µM; ATP 10 µM
LCK (human) = LCK (human) (UniProt P06239); settings: compound 0.5 µM; ATP 10 µM
AKT2 (human) = AKT2 (human) (UniProt P31751); settings: compound 0.5 µM; ATP 10 µM
TGFBR2 (human) = TGFBR2 (human) (UniProt P37173); settings: compound 0.5 µM; ATP 10 µM
STK10 (human) = STK10 (human) (UniProt O94804); settings: compound 0.5 µM; ATP 10 µM
SIK2 (human) = SIK2 (human) (UniProt Q9H0K1); settings: compound 0.5 µM; ATP 10 µM
ULK1 (human) = ULK1 (human) (UniProt O75385); settings: compound 0.5 µM; ATP 10 µM
CLK2 (human) = CLK2 (human) (UniProt P49760); settings: compound 0.5 µM; ATP 10 µM
RET (human) = RET (human) (UniProt P07949); settings: compound 0.5 µM; ATP 10 µM
MST1R (human) = MST1R (human) (UniProt Q04912); settings: compound 0.5 µM; ATP 10 µM
MAP4K5 (human) = MAP4K5 (human) (UniProt Q9Y4K4); settings: compound 0.5 µM; ATP 10 µM
MET (human) = MET (human) (UniProt P08581); settings: compound 0.5 µM; ATP 10 µM
CDK6 CCND1 (human) = CDK6 CCND1 (human) (UniProt Q00534+P24385); settings: compound 0.5 µM
SRPK1 (human) = SRPK1 (human) (UniProt Q96SB4); settings: compound 0.5 µM; ATP 10 µM
PDPK1 (human) = PDPK1 (human) (UniProt O15530); settings: compound 0.5 µM; ATP 10 µM
STK4 (human) = STK4 (human) (UniProt Q13043); settings: compound 0.5 µM; ATP 10 µM
PHKG1 (human) = PHKG1 (human) (UniProt Q16816); settings: compound 0.5 µM; ATP 10 µM
NEK11 (human) = NEK11 (human) (UniProt Q8NG66); settings: compound 0.5 µM; ATP 10 µM
BRAF (human) = BRAF (human) (UniProt P15056); settings: compound 0.5 µM; ATP 10 µM
TBK1 (human) = TBK1 (human) (UniProt Q9UHD2); settings: compound 0.5 µM; ATP 10 µM
MAP3K2 (human) = MAP3K2 (human) (UniProt Q9Y2U5); settings: compound 0.5 µM; ATP 10 µM

LCK (human), sequence (P06239 whole entry, looked up): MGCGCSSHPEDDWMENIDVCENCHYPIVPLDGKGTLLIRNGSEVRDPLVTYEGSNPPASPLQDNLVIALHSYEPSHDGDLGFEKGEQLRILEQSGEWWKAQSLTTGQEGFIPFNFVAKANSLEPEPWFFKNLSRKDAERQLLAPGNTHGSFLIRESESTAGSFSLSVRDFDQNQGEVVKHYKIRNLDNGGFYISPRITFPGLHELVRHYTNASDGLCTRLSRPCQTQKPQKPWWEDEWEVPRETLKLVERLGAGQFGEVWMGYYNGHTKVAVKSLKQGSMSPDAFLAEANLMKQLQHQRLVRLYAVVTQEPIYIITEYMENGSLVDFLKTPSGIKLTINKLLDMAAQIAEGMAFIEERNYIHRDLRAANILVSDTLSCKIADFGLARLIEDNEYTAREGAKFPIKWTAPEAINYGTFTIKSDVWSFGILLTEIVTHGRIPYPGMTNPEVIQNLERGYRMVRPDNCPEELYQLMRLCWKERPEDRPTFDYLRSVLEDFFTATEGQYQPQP
STK4 (human), sequence (Q13043 whole entry, looked up): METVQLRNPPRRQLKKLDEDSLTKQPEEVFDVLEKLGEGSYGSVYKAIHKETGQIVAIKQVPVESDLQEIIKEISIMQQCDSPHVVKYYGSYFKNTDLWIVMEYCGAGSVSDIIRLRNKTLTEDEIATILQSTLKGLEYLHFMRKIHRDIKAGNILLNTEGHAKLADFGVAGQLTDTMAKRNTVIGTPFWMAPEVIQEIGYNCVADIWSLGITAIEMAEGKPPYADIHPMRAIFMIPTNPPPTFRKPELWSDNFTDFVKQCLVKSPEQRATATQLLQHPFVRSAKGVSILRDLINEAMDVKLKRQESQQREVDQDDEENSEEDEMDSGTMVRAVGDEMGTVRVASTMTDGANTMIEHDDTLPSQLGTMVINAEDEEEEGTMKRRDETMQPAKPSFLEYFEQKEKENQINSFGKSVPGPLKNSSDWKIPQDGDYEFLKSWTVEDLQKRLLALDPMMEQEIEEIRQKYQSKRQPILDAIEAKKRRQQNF
MAPKAPK5 (human), sequence (Q8IW41 whole entry, looked up): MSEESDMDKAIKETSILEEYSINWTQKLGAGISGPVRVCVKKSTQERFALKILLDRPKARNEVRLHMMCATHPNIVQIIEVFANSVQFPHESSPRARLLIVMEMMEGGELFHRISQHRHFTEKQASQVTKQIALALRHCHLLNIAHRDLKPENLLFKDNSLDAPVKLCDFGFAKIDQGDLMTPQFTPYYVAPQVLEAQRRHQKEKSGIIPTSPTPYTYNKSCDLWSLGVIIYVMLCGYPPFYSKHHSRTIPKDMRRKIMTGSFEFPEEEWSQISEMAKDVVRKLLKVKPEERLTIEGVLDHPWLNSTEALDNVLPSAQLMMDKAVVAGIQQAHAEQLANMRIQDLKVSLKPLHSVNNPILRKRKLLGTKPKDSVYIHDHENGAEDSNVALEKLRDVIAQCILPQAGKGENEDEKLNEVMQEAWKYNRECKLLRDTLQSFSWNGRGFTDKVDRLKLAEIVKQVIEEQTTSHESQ
NEK11 (human), sequence (Q8NG66 whole entry, looked up): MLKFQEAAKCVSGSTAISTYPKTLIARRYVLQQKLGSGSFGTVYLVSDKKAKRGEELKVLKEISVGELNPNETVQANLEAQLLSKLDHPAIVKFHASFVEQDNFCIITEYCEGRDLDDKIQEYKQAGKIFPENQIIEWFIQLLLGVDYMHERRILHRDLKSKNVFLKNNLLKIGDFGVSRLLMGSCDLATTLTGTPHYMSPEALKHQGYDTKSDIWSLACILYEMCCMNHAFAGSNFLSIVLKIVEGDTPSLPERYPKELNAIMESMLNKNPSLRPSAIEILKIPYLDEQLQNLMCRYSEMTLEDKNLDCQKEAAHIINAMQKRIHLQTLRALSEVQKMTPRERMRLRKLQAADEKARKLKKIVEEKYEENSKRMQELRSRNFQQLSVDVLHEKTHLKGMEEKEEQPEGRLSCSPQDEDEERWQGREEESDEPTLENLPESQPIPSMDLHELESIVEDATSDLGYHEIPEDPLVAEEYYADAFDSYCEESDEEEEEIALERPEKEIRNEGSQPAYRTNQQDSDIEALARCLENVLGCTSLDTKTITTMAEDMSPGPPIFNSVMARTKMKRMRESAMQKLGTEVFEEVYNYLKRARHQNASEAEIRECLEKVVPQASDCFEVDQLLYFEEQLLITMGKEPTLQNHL
CDK2 CCNE1 (human), sequence (P24864 whole entry, looked up, other chains not shown): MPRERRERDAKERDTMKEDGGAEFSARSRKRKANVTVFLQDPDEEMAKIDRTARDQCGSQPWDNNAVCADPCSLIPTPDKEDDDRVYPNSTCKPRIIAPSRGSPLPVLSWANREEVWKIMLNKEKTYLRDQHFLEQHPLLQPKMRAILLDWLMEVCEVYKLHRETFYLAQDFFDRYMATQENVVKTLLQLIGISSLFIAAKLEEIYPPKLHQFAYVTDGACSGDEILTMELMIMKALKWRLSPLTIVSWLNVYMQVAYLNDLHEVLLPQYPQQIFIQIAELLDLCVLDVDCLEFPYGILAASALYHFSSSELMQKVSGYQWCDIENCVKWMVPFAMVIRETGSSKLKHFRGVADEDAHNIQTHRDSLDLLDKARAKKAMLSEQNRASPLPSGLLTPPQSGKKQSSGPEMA
AXL (human), sequence (P30530 whole entry, looked up): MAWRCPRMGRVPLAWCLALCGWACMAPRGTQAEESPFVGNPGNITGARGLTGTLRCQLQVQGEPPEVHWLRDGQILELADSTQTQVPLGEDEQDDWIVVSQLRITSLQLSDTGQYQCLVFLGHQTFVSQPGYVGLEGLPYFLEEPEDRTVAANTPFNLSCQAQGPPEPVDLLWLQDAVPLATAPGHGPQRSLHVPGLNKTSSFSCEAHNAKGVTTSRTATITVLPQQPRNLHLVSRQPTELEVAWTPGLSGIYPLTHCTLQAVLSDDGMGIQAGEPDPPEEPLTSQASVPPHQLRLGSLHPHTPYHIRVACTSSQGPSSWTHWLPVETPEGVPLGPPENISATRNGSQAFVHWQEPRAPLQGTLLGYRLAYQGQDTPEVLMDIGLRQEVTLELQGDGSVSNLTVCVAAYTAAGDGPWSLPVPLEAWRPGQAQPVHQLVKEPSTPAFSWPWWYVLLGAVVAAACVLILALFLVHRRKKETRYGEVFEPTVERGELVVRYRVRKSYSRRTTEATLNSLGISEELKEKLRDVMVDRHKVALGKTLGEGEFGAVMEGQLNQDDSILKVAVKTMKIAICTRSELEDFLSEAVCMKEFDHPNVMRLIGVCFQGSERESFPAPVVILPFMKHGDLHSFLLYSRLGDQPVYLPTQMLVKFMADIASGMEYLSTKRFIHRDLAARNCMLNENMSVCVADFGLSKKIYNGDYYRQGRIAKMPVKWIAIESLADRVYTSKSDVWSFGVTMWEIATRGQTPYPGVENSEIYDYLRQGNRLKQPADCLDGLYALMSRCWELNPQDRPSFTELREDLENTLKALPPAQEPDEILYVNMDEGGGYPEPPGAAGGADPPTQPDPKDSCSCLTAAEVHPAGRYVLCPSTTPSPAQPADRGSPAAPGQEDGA
RET (human), sequence (P07949 whole entry, looked up): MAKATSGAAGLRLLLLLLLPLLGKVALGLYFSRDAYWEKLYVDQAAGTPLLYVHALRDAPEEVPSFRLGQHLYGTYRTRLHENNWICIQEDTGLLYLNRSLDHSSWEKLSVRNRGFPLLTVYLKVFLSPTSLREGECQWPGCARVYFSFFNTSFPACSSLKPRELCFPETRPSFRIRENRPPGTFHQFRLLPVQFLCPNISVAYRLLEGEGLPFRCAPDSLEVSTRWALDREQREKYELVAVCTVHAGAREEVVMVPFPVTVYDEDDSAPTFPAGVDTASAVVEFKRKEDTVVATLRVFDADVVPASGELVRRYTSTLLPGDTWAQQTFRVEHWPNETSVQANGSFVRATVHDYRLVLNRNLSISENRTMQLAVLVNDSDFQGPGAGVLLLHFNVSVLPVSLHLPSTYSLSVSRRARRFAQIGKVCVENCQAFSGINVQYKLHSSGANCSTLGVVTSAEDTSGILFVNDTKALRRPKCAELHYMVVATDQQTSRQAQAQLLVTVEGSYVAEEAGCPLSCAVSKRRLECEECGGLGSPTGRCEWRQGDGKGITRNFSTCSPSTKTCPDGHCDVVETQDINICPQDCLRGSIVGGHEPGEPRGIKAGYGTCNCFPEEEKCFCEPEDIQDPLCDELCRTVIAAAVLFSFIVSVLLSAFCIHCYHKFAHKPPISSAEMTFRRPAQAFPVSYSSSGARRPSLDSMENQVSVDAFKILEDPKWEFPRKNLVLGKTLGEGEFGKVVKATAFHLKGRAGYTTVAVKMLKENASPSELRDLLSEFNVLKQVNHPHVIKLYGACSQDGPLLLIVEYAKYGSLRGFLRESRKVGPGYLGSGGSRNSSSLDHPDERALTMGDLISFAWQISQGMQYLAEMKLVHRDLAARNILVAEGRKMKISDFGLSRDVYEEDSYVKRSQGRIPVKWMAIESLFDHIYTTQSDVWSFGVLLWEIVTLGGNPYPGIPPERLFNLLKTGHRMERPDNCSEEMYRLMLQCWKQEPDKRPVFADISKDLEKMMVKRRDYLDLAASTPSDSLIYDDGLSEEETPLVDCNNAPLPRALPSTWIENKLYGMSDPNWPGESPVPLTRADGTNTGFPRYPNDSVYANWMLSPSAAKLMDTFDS
AKT2 (human), sequence (P31751 whole entry, looked up): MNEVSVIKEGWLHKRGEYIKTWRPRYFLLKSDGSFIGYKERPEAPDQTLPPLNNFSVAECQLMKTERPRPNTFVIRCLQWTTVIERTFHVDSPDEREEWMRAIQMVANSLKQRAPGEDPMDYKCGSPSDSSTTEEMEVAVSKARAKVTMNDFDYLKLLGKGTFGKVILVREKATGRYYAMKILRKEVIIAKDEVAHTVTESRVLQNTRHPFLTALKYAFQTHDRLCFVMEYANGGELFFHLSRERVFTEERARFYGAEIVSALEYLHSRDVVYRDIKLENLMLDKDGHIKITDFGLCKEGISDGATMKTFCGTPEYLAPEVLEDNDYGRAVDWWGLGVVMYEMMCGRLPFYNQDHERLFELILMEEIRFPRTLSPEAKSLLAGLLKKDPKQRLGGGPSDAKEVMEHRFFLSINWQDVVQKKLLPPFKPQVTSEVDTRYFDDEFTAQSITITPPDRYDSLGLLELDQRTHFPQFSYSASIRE

Row | Structure (SMILES) | residual activity (FER (human)) [%] | residual activity (MARK3 (human)) [%] | residual activity (MAPKAPK5 (human)) [%] | residual activity (PAK7 (human)) [%] | residual activity (IKBKE (human)) [%] | residual activity (YES1 (human)) [%] | residual activity (LRRK2 (human)) [%] | residual activity (STK33 (human)) [%] | residual activity (EGFR (human)) [%] | residual activity (AXL (human)) [%] | residual activity (PAK6 (human)) [%] | residual activity (ROCK1 (human)) [%] | residual activity (CSNK1A1 (human)) [%] | residual activity (MAPK3 (human)) [%] | residual activity (PRKCZ (human)) [%] | residual activity (LCK (human)) [%] | residual activity (AKT2 (human)) [%] | residual activity (TGFBR2 (human)) [%] | residual activity (STK10 (human)) [%] | residual activity (SIK2 (human)) [%] | further results
1 | O=c1[nH]c2ccccc2n1C1CCN(Cc2ccc(-c3nc4cc5[nH]cnc5cc4nc3-c3ccccc3)cc2)CC1 | 99.6 | 103 | 97.4 | 110 | 91.9 | 90.8 | 103 | 89.6 | 99.8 | 105 | 109 | 101 | 96 | 118 | 102 | 98.2 | 96.8 | 95.5 | 92.6 | 114 | residual activity (CDK2 CCNE1 (human)): 95.6%; residual activity (ULK1 (human)): 96.7%; residual activity (CLK2 (human)): 114%; residual activity (RET (human)): 96.7%; residual activity (MST1R (human)): 111%; residual activity (MAP4K5 (human)): 91.9%; residual activity (MET (human)): 102%; residual activity (CDK6 CCND1 (human)): 105%; residual activity (SRPK1 (human)): 106%; residual activity (PDPK1 (human)): 107%; residual activity (STK4 (human)): 95.2%; residual activity (PHKG1 (human)): 106%; residual activity (NEK11 (human)): 86.4%; residual activity (BRAF (human)): 101%; residual activity (TBK1 (human)): 92.7%; residual activity (MAP3K2 (human)): 92.4%
2 | Cc1cc(Nc2nc(-c3ccccc3)nc3ccccc23)n[nH]1 | 31.6 | 89 | 93.2 | 53.1 | 67.1 | 20.4 | 88.3 | 44.7 | 97.4 | 101 | 78.9 | 98.8 | 94.6 | 80.8 | 97.1 | 75.6 | 127 | 116 | 56.2 | 99.6 | residual activity (CDK2 CCNE1 (human); ATP 10 µM): 75.4%; residual activity (ULK1 (human)): 81.1%; residual activity (CLK2 (human)): 91.7%; residual activity (RET (human)): 8.76%; residual activity (MST1R (human)): 96.6%; residual activity (MAP4K5 (human)): 20.2%; residual activity (MET (human)): 130%; residual activity (CDK6 CCND1 (human); ATP 10 µM): 85.5%; residual activity (SRPK1 (human)): 90.1%; residual activity (PDPK1 (human)): 90.3%; residual activity (STK4 (human)): 58%; residual activity (PHKG1 (human)): 71.7%; residual activity (NEK11 (human)): 105%; residual activity (BRAF (human)): 99.5%; residual activity (TBK1 (human)): 53.8%; residual activity (MAP3K2 (human)): 78.4%
3 | O=c1c2ccccc2[nH]c(=S)n1CCN1CCC(=C(c2ccc(F)cc2)c2ccc(F)cc2)CC1 | 95.2 | 107 | 101 | 97.4 | 101 | 99.2 | 93.9 | 106 | 101 | 91.7 | 98.4 | 97.2 | 106 | 105 | 102 | 99.5 | 101 | 119 | 96.2 | 89.7 | residual activity (CDK2 CCNE1 (human); ATP 10 µM): 97.3%; residual activity (ULK1 (human)): 98.1%; residual activity (CLK2 (human)): 87.8%; residual activity (RET (human)): 106%; residual activity (MST1R (human)): 103%; residual activity (MAP4K5 (human)): 98.8%; residual activity (MET (human)): 114%; residual activity (CDK6 CCND1 (human); ATP 10 µM): 98.7%; residual activity (SRPK1 (human)): 97.8%; residual activity (PDPK1 (human)): 99.2%; residual activity (STK4 (human)): 103%; residual activity (PHKG1 (human)): 101%; residual activity (NEK11 (human)): 94%; residual activity (TBK1 (human)): 104%; residual activity (MAP3K2 (human)): 99.6%
4 | N#CCCc1ccc2c(c1)-c1[nH]c3ccc([N+](=O)[O-])cc3c1CC(=O)N2 | 72.7 | 67.3 | 94.3 | 60.3 | 89.2 | 35.8 | 73.8 | 78.8 | 94.4 | 95.5 | 104 | 38.9 | 95.1 | 95.1 | 83.4 | 78.2 | 100 | 10.1 | 74.1 | 44.2 | residual activity (CDK2 CCNE1 (human); ATP 10 µM): 13.4%; residual activity (ULK1 (human)): 94.2%; residual activity (CLK2 (human)): 104%; residual activity (RET (human)): 80.8%; residual activity (MST1R (human)): 107%; residual activity (MAP4K5 (human)): 7.61%; residual activity (MET (human)): 119%; residual activity (CDK6 CCND1 (human); ATP 10 µM): 6.79%; residual activity (SRPK1 (human)): 107%; residual activity (PDPK1 (human)): 79.8%; residual activity (STK4 (human)): 30.9%; residual activity (PHKG1 (human)): 7.72%; residual activity (NEK11 (human)): 101%; residual activity (BRAF (human)): 99.3%; residual activity (TBK1 (human)): 83.7%; residual activity (MAP3K2 (human)): 61.5%
5 | CCOc1cc2ncnc(Nc3cccc(Br)c3)c2cc1OCC | 90.7 | 98.8 | 71.6 | 99.1 | 98.7 | 43.2 | 78.7 | 93.9 | 2.02 | 89.9 | 119 | 98.8 | 98.6 | 113 | 97.8 | 52.9 | 87.6 | 83.4 | 30.5 | 109 | residual activity (CDK2 CCNE1 (human); ATP 10 µM): 94.4%; residual activity (ULK1 (human)): 98.8%; residual activity (CLK2 (human)): 92.6%; residual activity (RET (human)): 39.3%; residual activity (MST1R (human)): 102%; residual activity (MAP4K5 (human)): 47.7%; residual activity (MET (human)): 78.6%; residual activity (CDK6 CCND1 (human); ATP 10 µM): 102%; residual activity (SRPK1 (human)): 102%; residual activity (PDPK1 (human)): 96.8%; residual activity (STK4 (human)): 98.5%; residual activity (PHKG1 (human)): 84.2%; residual activity (NEK11 (human)): 103%; residual activity (BRAF (human)): 97.1%; residual activity (TBK1 (human)): 85.4%; residual activity (MAP3K2 (human)): 102%
6 | c1ccc(-c2cnc(Nc3ccc(OCCN4CCCC4)cc3)s2)cc1 | 90 | 93.1 | 83.4 | 87.2 | 81.6 | 42.1 | 95.8 | 91 | 98.3 | 97.1 | 101 | 102 | 86.7 | 99.8 | 96.3 | 48.6 | 92.4 | 129 | 76.9 | 45.6 | residual activity (CDK2 CCNE1 (human); ATP 10 µM): 85.7%; residual activity (ULK1 (human)): 127%; residual activity (CLK2 (human)): 102%; residual activity (RET (human)): 84.2%; residual activity (MST1R (human)): 107%; residual activity (MAP4K5 (human)): 72.5%; residual activity (MET (human)): 89.7%; residual activity (CDK6 CCND1 (human); ATP 10 µM): 40.3%; residual activity (SRPK1 (human)): 99.9%; residual activity (PDPK1 (human)): 84.9%; residual activity (STK4 (human)): 102%; residual activity (PHKG1 (human)): 45.5%; residual activity (NEK11 (human)): 95%; residual activity (TBK1 (human)): 87.1%; residual activity (MAP3K2 (human)): 104%
